Measured values: US9340577B2, “HLA binding motifs and peptides and their uses” (priority 1992, dated 2016)
Like-named read-outs stand apart in the source and are kept apart here. No end group written: not given here.

How the values were obtained:
Experiment in all cases: biochemical
A*2902 = A*2902 (Homo sapiens, UniProt P04439, A270S/D101N/D185E/E176V/E277Q/E87Q/F33T/G231S/H175R/I121M/I218V/I322F/K168Q/L300P/L318F/M331R/P208A/P217A/Q86L/T323A/T345S/V100A/V358M); assay type: binding
A*2601 = A*2601 (Homo sapiens, UniProt P04439, A114D/A173T/A270S/D101N/D185E/E277Q/E87N/F33Y/G231S/I121R/I218V/K168Q/L180W/L300P/L318F/P208A/P217A/Q86R/Q94H/R138Q/S129P/T187R/T323A/T345S/V100A/V358M); assay type: binding
HLA-A1 (A*0101) = HLA-A1 (A*0101) (Homo sapiens, UniProt P04439, A114D/A174V/A182V/D101N/D185E/E176A/E190D/L180R/Q94H/R68K/S129P/T187R/V100A/V91M/W191G); assay type: binding
A*3002 = A*3002 (Homo sapiens, UniProt P04439, D101N/D140H/D185E/E176R/F33S/G80R/H175R/K168Q/Q94H/R138E/R41S/V100E); assay type: binding
Sequence of A*3002 (P04439 whole entry, looked up, the tested form may be a part, stated change not applied): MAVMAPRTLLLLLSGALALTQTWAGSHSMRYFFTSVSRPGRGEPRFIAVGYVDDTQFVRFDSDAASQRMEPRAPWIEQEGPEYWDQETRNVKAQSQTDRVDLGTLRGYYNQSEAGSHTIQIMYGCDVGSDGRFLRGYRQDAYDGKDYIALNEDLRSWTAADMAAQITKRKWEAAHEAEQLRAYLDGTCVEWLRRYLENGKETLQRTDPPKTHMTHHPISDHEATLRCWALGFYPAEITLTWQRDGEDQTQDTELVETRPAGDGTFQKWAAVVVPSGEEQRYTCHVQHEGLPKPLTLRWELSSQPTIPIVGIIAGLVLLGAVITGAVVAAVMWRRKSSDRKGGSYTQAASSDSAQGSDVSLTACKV

B*0701 = B*0701 (Homo sapiens, UniProt P01889)
[1] = B*0701 (nM), Binding of peptides to B7-like supermotif alleles, Table 36

Molecule | IC50 (A*2902) | IC50 (A*2601) | IC50 (HLA-A1 (A*0101)) | IC50 (A*3002) | IC50 (B*0701) | IC50 (B*0701; B*0701 (nM), binding of B7-like supermotif 10-mer peptides to purified HLA-B*0701) | IC50 (B*0701; [1])
EVDYVGLYY [Peptide 1580.33] | 4.5 nM | 161 nM | 3.6 nM | > 20000 nM |  |  | 
CC[C@H](C)[C@H](N)C(=O)N[C@H](C(=O)N[C@@H](CCC(=O)O)C(=O)N[C@@H](CCCCN)C(=O)N[C@@H](CC(N)=O)C(=O)N[C@@H](CO)C(=O)NCC(=O)N[C@@H](CC(C)C)C(=O)N[C@@H](Cc1ccc(O)cc1)C(=O)O)[C@@H](C)O [Peptide 1553.04] | > 20000 nM | 513 nM | 58 nM | 68 nM |  |  | 
SPTPLLYRL [15.053] |  |  |  |  | 2300 nM |  | 
YSDVRKYRY [Peptide 1549.49] | 209 nM | > 20000 nM | 18 nM | 275 nM |  |  | 
TIEKLTNTGLY [Peptide 1589.45] | 15100 nM | 12 nM | 78 nM | 220 nM |  |  | 
SPIETVPVKL [15.253] |  |  |  |  |  | 1960 nM | 
NPAEKLRHL [15.105] |  |  |  |  |  |  | 509 nM
VTEFRWYRY [Peptide 1549.42] | 256 nM | 3150 nM | 26 nM | 92 nM |  |  | 
QVDYYGLYY [Peptide 1580.19] | 69 nM | 777 nM | 3.4 nM | 1150 nM |  |  | 
VQDKILDIY [Peptide 1580.32] | > 20000 nM | > 20000 nM |  | 3810 nM |  |  | 
CC[C@H](C)[C@H](NC(=O)[C@@H](NC(=O)[C@H](CC(C)C)NC(=O)[C@H](CC(C)C)NC(=O)CNC(=O)[C@@H](NC(=O)[C@H](CCCCN)NC(=O)[C@@H]1CCCN1C(=O)[C@@H](N)CCSC)[C@@H](C)O)[C@@H](C)CC)C(=O)O [15.108] |  |  |  |  |  |  | 2790 nM
DSDQILVGY [Peptide 1593.12] | > 20000 nM | > 20000 nM |  | > 20000 nM |  |  | 
GTDQATPGPAY [Peptide 9012.0160] |  | 3850 nM |  | 234 nM |  |  | 
RTTQLFEDNY [Peptide 9012.0149] | 11200 nM | > 20000 nM | 2390 nM | 7.4 nM |  |  | 
SPWLTPRCM [15.046] |  |  |  |  | 651 nM |  | 
KPCVKLTPL [15.070] |  |  |  |  |  |  | 13 nM
LPNLEEVAL [15.049] |  |  |  |  |  |  | 1500 nM
DSVSSTCRY [Peptide 86.0156] | > 20000 nM | 12 nM | 3060 nM | 994 nM |  |  | 
FTSMPNPEGRY [Peptide 9012.0174] | 170 nM | 2.8 nM | 10 nM | 104 nM |  |  | 
ATTDLTIVY [Peptide 1549.51] |  | 163 nM |  | 109 nM |  |  | 
HTASNPPAQY [Peptide 9012.0142] | 21 nM | 0.54 nM |  | 1.8 nM |  |  | 
RTDGNRQIIGY [Peptide 9012.0158] | > 20000 nM | > 20000 nM | 140 nM | 95 nM |  |  | 

Molecule | IC50 (A*2902) | IC50 (A*2601) | IC50 (HLA-A1 (A*0101)) | IC50 (A*3002) | IC50 (B*0701) | IC50 (B*0701; B*0701 (nM), binding of B7-like supermotif 10-mer peptides to purified HLA-B*0701) | IC50 (B*0701; [1])
SMDNPEGRY [Peptide 9012.0122] | 1440 nM | 535 nM | 141 nM | 11 nM |  |  | 
CC[C@H](C)[C@H](N)C(=O)N[C@@H](CO)C(=O)N[C@@H](CCC(=O)O)C(=O)N[C@@H](Cc1ccc(O)cc1)C(=O)N[C@@H](CCCNC(=N)N)C(=O)N[C@@H](Cc1c[nH]cn1)C(=O)N[C@@H](Cc1ccc(O)cc1)C(=O)N[C@@H](CS)C(=O)N[C@@H](Cc1ccc(O)cc1)C(=O)O [Peptide 1571.27] | 264 nM | > 20000 nM | 38 nM | 62 nM |  |  | 
LSSALEIPY [Peptide 1549.01] |  | 4110 nM | 25 nM | 83 nM |  |  | 
ETDLDMLRHLY [Peptide 9012.0172] | 1500 nM | 4.4 nM | 9.6 nM | 10 nM |  |  | 
TTSPLNTSY [Peptide 9012.0116] |  | 2.6 nM |  | 12 nM |  |  | 
LQDKIIDHY [Peptide 1580.21] | > 20000 nM | > 20000 nM |  | 2770 nM |  |  | 
VTQGNLELTY [Peptide 9012.0147] |  | 6720 nM | 90 nM | 23 nM |  |  | 
VPVKLKPGM [15.074] |  |  |  |  |  |  | 18000 nM
ITSPPDSSY [Peptide 9012.0118] | 16500 nM | 462 nM | 1720 nM | 8.8 nM |  |  | 
LPKREPLDV [15.177] |  |  |  |  |  |  | 8310 nM
WTSTDNKNY [Peptide 1580.31] | > 20000 nM | 4830 nM | 163 nM | 7310 nM |  |  | 
VTQGLPREY [Peptide 9012.0128] | 1010 nM | 3890 nM | 848 nM | 1.7 nM |  |  | 
ASDVTACPYNY [Peptide 9012.0176] | 2440 nM | 5830 nM | 18 nM | 205 nM |  |  | 
LSDALEIPY [Peptide 1549.41] | 1600 nM | 629 nM | 12 nM | 8690 nM |  |  | 
CC[C@H](C)[C@H](NC(=O)[C@H](Cc1c[nH]cn1)NC(=O)[C@@H]1CCCN1C(=O)CN)C(=O)N[C@@H](CO)C(=O)N[C@@H](Cc1ccc(O)cc1)C(=O)N1CCC[C@H]1C(=O)N1CCC[C@H]1C(=O)N[C@@H](CC(C)C)C(=O)O [15.156] |  |  |  |  |  |  | 6.2 nM
VQEKILDLY [Peptide 86.0149] | 17000 nM | 8180 nM | 1440 nM | 193 nM |  |  | 
CC(C)C[C@H](NC(=O)[C@H](CO)NC(=O)[C@H](CCCNC(=N)N)NC(=O)[C@H](CC(C)C)NC(=O)[C@H](CO)NC(=O)[C@H](C)NC(=O)[C@H](CC(C)C)NC(=O)[C@@H]1CCCN1C(=O)[C@@H](N)Cc1ccc(O)cc1)C(=O)O [15.088] |  |  |  |  |  |  | 5.5 nM
APTKALRRV [15.089] |  |  |  |  | 659 nM |  | 
CC[C@H](C)[C@H](NC(=O)[C@@H](NC(=O)[C@H](Cc1ccccc1)NC(=O)[C@H](CC(N)=O)NC(=O)[C@@H](NC(=O)[C@@H](NC(=O)[C@H](CS)NC(=O)[C@@H]1CCCN1C(=O)[C@@H](N)Cc1ccc(O)cc1)[C@@H](C)O)C(C)C)[C@@H](C)O)C(=O)N[C@@H](Cc1ccccc1)C(=O)O [15.225] |  |  |  |  |  |  | 1520 nM
KTGILTVTY [Peptide 86.0146] | 3390 nM | > 20000 nM | 855 nM | 20 nM |  |  | 
QAEPDTSNY [Peptide 1549.03] | > 20000 nM | > 20000 nM | 319 nM | 9930 nM |  |  | 
LTSALEIPY [Peptide 1549.40] |  | 358 nM | 57 nM | 161 nM |  |  | 

Molecule | IC50 (A*2902) | IC50 (A*2601) | IC50 (HLA-A1 (A*0101)) | IC50 (A*3002) | IC50 (B*0701) | IC50 (B*0701; B*0701 (nM), binding of B7-like supermotif 10-mer peptides to purified HLA-B*0701) | IC50 (B*0701; [1])
KSAIVTLTY [Peptide 1580.20] |  | > 20000 nM | 9.2 nM | 5.7 nM |  |  | 
CC[C@H](C)[C@H](N)C(=O)N1CCC[C@H]1C(=O)N[C@@H](CC(=O)O)C(=O)N[C@@H](CO)C(=O)N[C@H](C(=O)N[C@@H](CCC(N)=O)C(=O)N[C@@H](CC(=O)O)C(=O)N[C@@H](CO)C(=O)N[C@@H](CC(C)C)C(=O)O)[C@@H](C)CC [15.174] |  |  |  |  |  |  | 2460 nM
LTQRNPQLCY [Peptide 9012.0151] |  | 21 nM | 6.9 nM | 7.1 nM |  |  | 
LSDTRNDVGPY [Peptide 9012.0164] | 9860 nM | 586 nM | 14 nM | 152 nM |  |  | 
TSDYYIVTY [Peptide 1549.48] | 11900 nM | 4110 nM | 11 nM | 2200 nM |  |  | 
ITDNNNGTY [Peptide 9012.0120] | 15600 nM | 460 nM | 32 nM | 21 nM |  |  | 
TTSPSYTY [Peptide 9012.0100] | 213 nM | 3440 nM |  | 323 nM |  |  | 
VFADLRIVY [Peptide 1549.09] | 2.9 nM | 1800 nM | > 20000 nM | 21 nM |  |  | 
NTGILTVTY [Peptide 86.0152] | 1400 nM | 3150 nM |  | 8720 nM |  |  | 
VTDCPYNY [Peptide 9012.0106] | 1450 nM | > 20000 nM | 79 nM | 1630 nM |  |  | 
ATDVSHRGLY [Peptide 1593.10] | 1620 nM | 18 nM | 26 nM | 15 nM |  |  | 
LQDKILDHY [Peptide 1580.27] | > 20000 nM | 7410 nM | 66 nM | 926 nM |  |  | 
CQDKILTHY [Peptide 86.0141] |  | 8900 nM | 914 nM | 188 nM |  |  | 
RTDPVTLDVLY [Peptide 9012.0168] | 1310 nM | 2520 nM | 6.7 nM | 10 nM |  |  | 
VSDFRWYRY [Peptide 1549.43] | 241 nM | 3070 nM | 24 nM | 99 nM |  |  | 
ISDSYTYY [Peptide 9012.0102] | 1990 nM | 8550 nM |  | 9110 nM |  |  | 
LTDKIIDHY [Peptide 1593.09] | > 20000 nM | > 20000 nM |  | 6800 nM |  |  | 
KTDILTVTY [Peptide 1593.11] | > 20000 nM | > 20000 nM |  | 922 nM |  |  | 
VTADLRIVY [Peptide 1549.50] | 228 nM | 121 nM | 1520 nM | 50 nM |  |  | 
CTSASNPSPQY [Peptide 9012.0170] | > 20000 nM | 549 nM | 535 nM | 484 nM |  |  | 
